Experimental findings from publication PMC4225009, “Structure-activity-relationship study of N-acyl-N-phenylpiperazines as potential inhibitors of the Excitatory Amino Acid Transporters (EAATs): improving the potency of a micromolar screening Hit is not truism” (SpringerPlus, 2013) are described below.

The target in one data set is T1, human EAAT1 (Homo sapiens, UniProt P43003).
T1 construct: expressed in transfected cells
Kind of data set: [3H]-D-aspartate uptake assay at HEK293 cells stably expressing human EAAT1. The class given is cell-based. The text has this:
(§1) In total, […] piperazine analogs 2.1-2.40 and 3.1-3.12 were characterized pharmacologically at stable HEK293 cells expressing human EAAT1-3 in a [^3H]-D-aspartate uptake assay, (Jensen & Bräuner-Osborne [2004]) and the results are summarized in Table 1 and Table 2. […] Usually, such findings would lead to the conclusion that the bicyclo-[2.2.1]-heptanyl group occupies a promiscuous hydrophobic pocket, which could be optimized for increased potency. However, upon increasing or decreasing the hydrophobic bulk and/or flexibility, a clear drop in potency was observed (analogs 2.1-2.17, Table 1). […] These findings could open up for the hypothesis that the pocket is indeed not hydrophobic but instead hydrophilic in nature. Upon binding of the hydrophobic alkane group, water molecules are forced out and ligand binding is entropically driven rather than enthalpically. Thus analogs 2.18-2.31, which comprise a hydrophobic group, could be potential inhibitors.
(§2) Analogs 2.22-2.31, 2.36-2.40, 3.3, 3.4, 3.6 and 3.12 were obtained as 5 mg portions pre-dissolved in DMSO from ChemBridge corporation and used directly in the [3H]-Asp-uptake assay.

The next data set concerns the target T2, human EAAT2 (Homo sapiens, UniProt P43004).
T2 construct: expressed in transfected cells
Put plainly: [3H]-D-aspartate uptake assay at HEK293 cells stably expressing human EAAT2. The class given is cell-based.
Excerpt: as §1, §2

Another data set has as its target T3, human EAAT3 (Homo sapiens, UniProt P43005).
T3 construct: expressed in transfected cells
T3 sequence (P43005 1-524): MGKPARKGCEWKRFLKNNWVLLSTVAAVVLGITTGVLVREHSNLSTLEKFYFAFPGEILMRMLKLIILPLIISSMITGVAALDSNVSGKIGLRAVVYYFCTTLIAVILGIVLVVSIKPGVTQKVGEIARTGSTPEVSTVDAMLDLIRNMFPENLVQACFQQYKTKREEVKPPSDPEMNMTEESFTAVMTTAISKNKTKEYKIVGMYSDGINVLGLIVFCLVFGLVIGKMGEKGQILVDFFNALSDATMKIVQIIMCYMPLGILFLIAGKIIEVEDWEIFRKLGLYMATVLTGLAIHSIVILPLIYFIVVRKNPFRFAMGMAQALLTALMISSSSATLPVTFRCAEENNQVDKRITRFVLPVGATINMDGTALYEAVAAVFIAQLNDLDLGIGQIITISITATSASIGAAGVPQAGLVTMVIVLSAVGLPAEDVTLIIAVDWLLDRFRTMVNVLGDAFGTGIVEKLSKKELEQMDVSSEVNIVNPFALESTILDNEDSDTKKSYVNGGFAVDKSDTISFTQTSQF
Kind of data set: [3H]-D-aspartate uptake assay at HEK293 cells stably expressing human EAAT3. It is filed as cell-based.
Excerpt: as §1, §2

The next data set has as its system human EAAT1-3. Kind of data set: [3H]-D-aspartate uptake assay, statements made for EAAT1-3 together. It is filed as cell-based. The following applies: for inhibitory activity at EAAT1-3 (in words): HEK293 cells expressing human EAAT1-3, [3H]-D-aspartate uptake; for drop in inhibitory potency across the subtypes: relative to the lead, EAAT1-3.
Excerpt: as §1, §2

Where [1] appears, read: [3H]-D-aspartate uptake, HEK293 cells stably expressing human EAAT1, analogs 1 and 2.1-2.40 (Table 1), read-out: EAAT1 IC50.
Where [2] appears, read: [3H]-D-aspartate uptake, HEK293 cells stably expressing human EAAT2, analogs 1 and 2.1-2.40 (Table 1), read-out: EAAT2 IC50.
Setting [3] is: [3H]-D-aspartate uptake, HEK293 cells stably expressing human EAAT3, analogs 1 and 2.1-2.40 (Table 1), read-out: EAAT3 IC50.
The mark [4] stands for this setting: D-aspartate uptake, HEK293 cells stably expressing human EAAT1, analogs 3.1-3.12 (Table 2), read-out: EAAT1 IC50.
[5] abbreviates: D-aspartate uptake, HEK293 cells stably expressing human EAAT2, analogs 3.1-3.12 (Table 2), read-out: EAAT2 IC50.
The mark [6] stands for this setting: D-aspartate uptake, HEK293 cells stably expressing human EAAT3, analogs 3.1-3.12 (Table 2), read-out: EAAT3 IC50.

One may read the IC50 as the midpoint of a concentration-inhibition curve. What is called melting point is the temperature of the solid-liquid transition.

Where two headings read alike, the source gives them in different places. Bounds are passed on as bounds.

T1 sequence (P43003 whole entry): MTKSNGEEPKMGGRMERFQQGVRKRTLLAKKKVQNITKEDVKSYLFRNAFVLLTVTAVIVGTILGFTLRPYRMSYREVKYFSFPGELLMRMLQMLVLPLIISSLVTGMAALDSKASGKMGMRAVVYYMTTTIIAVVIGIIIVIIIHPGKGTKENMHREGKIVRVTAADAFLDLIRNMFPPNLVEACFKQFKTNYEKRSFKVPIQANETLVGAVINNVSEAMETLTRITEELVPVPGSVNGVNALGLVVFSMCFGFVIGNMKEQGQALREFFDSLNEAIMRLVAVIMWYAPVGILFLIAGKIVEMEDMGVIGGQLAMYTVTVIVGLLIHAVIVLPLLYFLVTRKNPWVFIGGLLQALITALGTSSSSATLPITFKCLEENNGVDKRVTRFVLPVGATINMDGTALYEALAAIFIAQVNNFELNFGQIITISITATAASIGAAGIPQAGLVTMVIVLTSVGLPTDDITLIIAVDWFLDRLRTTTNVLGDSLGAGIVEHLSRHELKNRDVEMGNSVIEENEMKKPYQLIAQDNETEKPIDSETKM
T2 sequence (P43004 whole entry): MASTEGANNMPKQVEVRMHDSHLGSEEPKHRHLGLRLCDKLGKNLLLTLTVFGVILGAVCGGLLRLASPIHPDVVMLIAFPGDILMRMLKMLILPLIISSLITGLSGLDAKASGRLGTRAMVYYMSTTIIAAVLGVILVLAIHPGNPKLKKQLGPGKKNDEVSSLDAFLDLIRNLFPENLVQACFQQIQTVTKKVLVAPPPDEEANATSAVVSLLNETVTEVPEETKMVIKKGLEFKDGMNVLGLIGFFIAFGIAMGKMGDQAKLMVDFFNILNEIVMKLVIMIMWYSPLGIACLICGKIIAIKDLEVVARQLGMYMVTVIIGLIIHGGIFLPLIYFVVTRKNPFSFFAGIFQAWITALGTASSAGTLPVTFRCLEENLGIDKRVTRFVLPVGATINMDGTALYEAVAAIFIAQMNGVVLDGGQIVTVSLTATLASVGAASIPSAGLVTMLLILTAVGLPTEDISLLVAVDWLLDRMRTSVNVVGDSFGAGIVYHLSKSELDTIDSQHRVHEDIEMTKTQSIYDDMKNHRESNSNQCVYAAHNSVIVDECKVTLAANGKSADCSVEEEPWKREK

As for `O=C(c1ccc2c(c1)OCO2)N1CCN(c2cccc(C(F)(F)F)c2)CC1` [2.12, Benzo[d][1,3]dioxol-5-yl(4-(3-(trifluoromethyl)phenyl)piperazin-1-yl)methanone], the melting point lay in the range of 87 to 89 °C. In addition, the IC50 on human EAAT1 (setting [1]) is over 100 µM. Also, the IC50 on human EAAT2 (setting [2]) was over 100 µM. In addition, the IC50 on human EAAT3 (setting [3]) was over 100 µM.

For the compound `O=C(C1CC2CCC1C2)N1CCN(c2ccccc2)CC1` (racemic) [(±)-endo-exo-3.1, Bicyclo[2.2.1]heptan-2-yl(4-phenylpiperazin-1-yl)methanone], the IC50 on human EAAT1 (setting [4]), at human EAAT2 (setting [5]) and at human EAAT3 (setting [6]) was over 300 µM each time. In the data set with human EAAT1-3, the “inhibitory activity at EAAT1-3 (in words)” value (from here on “inhibitory activity”) is reported as “loss of inhibitory activity”.

Consider `O=C(C1CC2CCC1C2)N1CCN(c2ccc(C(F)(F)F)cc2)CC1` (racemic) [(±)-endo-exo-3.2, (±)-endo-exo-Bicyclo[2.2.1]heptan-2-yl(4-(4-(trifluoromethyl)phenyl)piperazin-1-yl)methanone], for which the melting point was 126 to 127 °C (dec.). For the same compound, at human EAAT1 (setting [4]), the IC50 is over 300 µM. Also, the IC50 at human EAAT2 (setting [5]) was over 300 µM. The IC50 on human EAAT3 (setting [6]) is over 300 µM. Further, in the data set with human EAAT1-3, the “inhibitory activity” value is recorded as “loss of inhibitory activity”.

As to `O=S(=O)(c1ccccc1)N1CCN(c2cccc(C(F)(F)F)c2)CC1` [2.33, 1-(Phenylsulfonyl)-4-(3-(trifluoromethyl)phenyl)piperazine], the melting point is 109 to 111 °C (dec.). Besides, the half-inhibitory concentration (IC50) at human EAAT1 (setting [1]) was over 1000 µM. Further, the IC50 at human EAAT2 (setting [2]) is over 300 µM. The IC50 at human EAAT3 (setting [3]) was over 1000 µM. In addition, the “inhibitory activity” value in the data set on human EAAT1-3 was “neither the carbamate 2.32 nor the sulfonamide 2.33 analog displayed inhibitory activity”.

As to `O=C(C1CCCCC1)N1CCN(c2cccc(C(F)(F)F)c2)CC1` [2.3, Cyclohexyl(4-(3-(trifluoromethyl)phenyl)piperazin-1-yl)methanone], the IC50 at human EAAT1 (setting [1]), on human EAAT2 (setting [2]) and at human EAAT3 (setting [3]) was about 100 µM throughout. The “drop in inhibitory potency across the subtypes” value with human EAAT1-3 is listed as 5-15 fold.

With `O=C([C@@H]1C[C@@H]2CC[C@H]1C2)N1CCN(c2cccc(C(F)(F)F)c2)CC1` (racemic) [(±)-endo-1, (±)-endo-Bicyclo[2.2.1]heptan-2-yl(4-(3-(trifluoromethyl)phenyl)piperazin-1-yl)methanone], the concentration for half-maximal inhibition (IC50) is 14 µM on human EAAT1 (setting [1]), 32 µM at human EAAT2 (setting [2]) and 10 µM at human EAAT3 (setting [3]). Also, at human EAAT1 (value in brackets, Table 1), the “EAAT1 pIC50 ± S.E.M.” value is reported as 4.88 ± 0.09. Further, the “EAAT2 pIC50 ± S.E.M.” value at human EAAT2 (value in brackets, Table 1) worked out at 4.52 ± 0.12. Moreover, the “EAAT3 pIC50 ± S.E.M.” value at human EAAT3 (value in brackets, Table 1) is reported as 5.04 ± 0.13. Also, in the data set on human EAAT1-3, the “inhibitory activity” value is reported as “inhibitory potency in the mid-micromolar range”.

For the compound `O=C(c1ccccc1)N1CCN(c2cccc(C(F)(F)F)c2)CC1` [2.11, Phenyl(4-(3-(trifluoromethyl)phenyl)piperazin-1-yl)methanone], the IC50 at human EAAT1 (setting [1]) was about 150 µM; on human EAAT2 (setting [2]) it was over 100 µM; on human EAAT3 (setting [3]), over 100 µM. In the data set on human EAAT1-3, the “drop in inhibitory potency across the subtypes” value was 5-15 fold.

In turn, `O=C(N1CCN(c2cccc(C(F)(F)F)c2)CC1)C1(c2ccccc2)CCCC1` [2.14, 1-Phenylcyclopentyl-(4-(3-(trifluoromethyl)phenyl)piperazin-1-yl)methanone] gave a melting point of 77 to 79 °C. Moreover, at human EAAT1, the IC50 is over 300 µM. The compound also returned an IC50 on human EAAT2 of over 300 µM. On human EAAT3, this compound gave a concentration for half-maximal inhibition (IC50) of over 300 µM.

As to `O=C(C1CC2CCC1C2)N1CCN(c2ccccc2C(F)(F)F)CC1` (racemic) [(±)-endo-exo-3.5, (±)-endo-exo-Bicyclo[2.2.1]heptan-2-yl(4-(2-(trifluoromethyl)phenyl)piperazin-1-yl)methanone], the IC50 is about 300 µM on human EAAT1 (setting [4]), over 300 µM at human EAAT2 (setting [5]) and over 300 µM on human EAAT3 (setting [6]). Moreover, in the data set on human EAAT1-3, the “inhibitory activity” value is “loss of inhibitory activity”.

Take `O=C(OCc1ccccc1)N1CCN(c2cccc(C(F)(F)F)c2)CC1` [2.32, Benzyl 4-(3-(trifluoromethyl)phenyl)piperazine-1-carboxylate]: the IC50 was over 1000 µM on human EAAT1 (setting [1]), over 300 µM on human EAAT2 (setting [2]) and over 300 µM at human EAAT3 (setting [3]). The “inhibitory activity” value in the data set with human EAAT1-3 is listed as “neither the carbamate 2.32 nor the sulfonamide 2.33 analog displayed inhibitory activity”.

With `O=C(C1CC2CCC1C2)N1CCN(c2cccc(O)c2)CC1` (racemic) [(±)-endo-exo-3.8, (±)-endo-exo-Bicyclo[2.2.1]heptan-2-yl(4-(3-hydroxyphenyl)piperazin-1-yl)methanone], the melting point was 187 to 189 °C (dec.). Also, on human EAAT1 (setting [4]), the IC50 is over 300 µM. Besides, on human EAAT2 (setting [5]), the IC50 is over 300 µM. Moreover, at human EAAT3 (setting [6]), the IC50 is over 300 µM.
